Test results from ChEMBL document CHEMBL1817596, “Synthesis of a hypoxia-targeted conjugate of the cardioprotective agent 3',4'-dihydroxyflavonol and evaluation of its ability to reduce ischaemia/reperfusion injury” (Bioorg Med Chem Lett, 2011).
Active and inactive are the calls of the source. The rule behind the calls is not given here.

Assays:
[1] = Drug uptake in rat Con8 cells assessed as compound level in supernatant under normoxic condition at 10^-5 M after 3 hrs by HPLC analysis; format: ADME, cell-based; settings: con8, 3 h, 10 µM
[2] = Drug uptake in rat Con8 cells assessed as compound level in supernatant under hypoxic condition at 10^-5 M after 3 hrs by HPLC analysis; format: ADME, cell-based; settings: con8, 3 h, 10 µM
[3] = Drug uptake in rat Con8 cells assessed as compound level in cell lysate under normoxic condition at 10^-5 M after 3 hrs by HPLC analysis; format: ADME, cell-based; settings: con8, 3 h, 10 µM
[4] = Drug uptake in rat Con8 cells assessed as compound level in cell lysate under hypoxic condition at 10^-5 M after 3 hrs by HPLC analysis; format: ADME, cell-based; settings: con8, 3 h, 10 µM
Aorta [5] = test: Vasorelaxant activity in Sprague-Dawley rat thoracic aortic rings assessed as inhibition of phenylephrine-induced contraction at 10^-5 M after 20 mins; format: functional, tissue-based
Aorta [6] = test: Vasorelaxant activity in phenylephrine and KPSS-precontracted Sprague-Dawley rat thoracic aortic rings at 10^-10 to 10^-4 M measured after 20 mins; format: functional, tissue-based
Rattus norvegicus [7] = test: Cardioprotection activity in ischemia/reperfusion-induced Sprague-Dawley rat hindquarters assessed as reduction in circulating LDH level at 5 mg/kg, bolus dose administered 5 mins prior to reperfusion measured 2 hrs after reperfusion by UV-VIS spectrophotometry; format: functional, organism-based; design: dose 5 mg/kg
Rattus norvegicus [8] = test: Cardioprotection activity in ischemia/reperfusion-induced in Sprague-Dawley rat hindquarters assessed as reduction in MPO level at 5 mg/kg, bolus dose administered 5 mins prior to reperfusion by spectrophotometric analysis relative to control; format: functional, organism-based; design: dose 5 mg/kg
Rattus norvegicus [9] = test: Cardioprotection activity in ischemia/reperfusion-induced Sprague-Dawley rat hindquarters assessed as reduction in circulating LDH level at 5 mg/kg, bolus dose administered 5 mins prior to reperfusion measured 3 hrs after reperfusion by UV-VIS spectrophotometry; format: functional, organism-based; design: dose 5 mg/kg
Aorta [10] = test: Antioxidant activity in Sprague-Dawley rat thoracic aortic rings assessed as inhibition of NADPH-activated superoxide formation at 10^-6 to 10^-4 M by lucigenin-enhanced chemiluminescence assay; format: functional, tissue-based
Aorta [11] = test: Inhibition of acetylcholine-induced relaxation Sprague-Dawley rat thoracic aortic rings at 10^-5 M after 20 mins in presence of superoxide generator pyrogallol; format: functional; design: scale not given: the % may be the effect or the level left
Rattus norvegicus [12] = test: Cardioprotection activity in ischemia/reperfusion-induced Sprague-Dawley rat hindquarters assessed as reduction in circulating LDH level at 8.6 mg/kg, bolus dose administered 5 mins prior to reperfusion measured 30 mins to 3 hrs after reperfusion by UV-VIS spectrophotometry; format: functional, organism-based; design: dose 8.6 mg/kg
Rattus norvegicus [13] = test: Cardioprotection activity in ischemia/reperfusion-induced in Sprague-Dawley rat hindquarters assessed as reduction in MPO level at 8.6 mg/kg, bolus dose administered 5 mins prior to reperfusion by spectrophotometry relative to control; format: functional, organism-based; design: dose 8.6 mg/kg

Row | SMILES | Drug uptake [1] | Drug uptake [2] | Drug uptake [3] | Drug uptake [4] | Activity (Aorta [5]) | EC50 (Aorta [6]) [µM] | Activity (Rattus norvegicus [7]) | Activity (Rattus norvegicus [8]) | Activity (Rattus norvegicus [9]) | Activity (Aorta [6]) | Activity (Aorta [10]) | Activity (Aorta [11]) [%] | Activity (Rattus norvegicus [12]) | Activity (Rattus norvegicus [13])
1 | O=c1c(O)c(-c2ccc(O)c(O)c2)oc2ccccc12 | Active | Active | Active | Active | Active | 4.68 | Active | inactive | Active | – | – | – | – | –
2 | O=c1c(O)c(-c2ccc(O)c(O)c2)oc2ccc(-n3cc(Cn4ccnc4[N+](=O)[O-])nn3)cc12 | Active | Active | Active | Active | inactive | – | – | – | – | inactive | Active | 50 | Active | Active
